Laboratory results as given in PMC10689823, “Discovery of a Drug-like, Natural Product-Inspired DCAF11 Ligand Chemotype” (Nature Communications, 2023).
Values joined by “and” are separate entries in the source; they are usually repeats but may differ in a detail not shown here. Equal values may be shown once. Blank lines part the entries; values can stand above or below the compound they belong to.

What was measured:
BLK = target: T1, BLK (Homo sapiens, UniProt P51451); experiment: BLK levels by Western blot in Ramos cells; format: cell-based
T1 construct: endogenous in cells; host or cells: Ramos
T1 sequence (P51451 whole entry): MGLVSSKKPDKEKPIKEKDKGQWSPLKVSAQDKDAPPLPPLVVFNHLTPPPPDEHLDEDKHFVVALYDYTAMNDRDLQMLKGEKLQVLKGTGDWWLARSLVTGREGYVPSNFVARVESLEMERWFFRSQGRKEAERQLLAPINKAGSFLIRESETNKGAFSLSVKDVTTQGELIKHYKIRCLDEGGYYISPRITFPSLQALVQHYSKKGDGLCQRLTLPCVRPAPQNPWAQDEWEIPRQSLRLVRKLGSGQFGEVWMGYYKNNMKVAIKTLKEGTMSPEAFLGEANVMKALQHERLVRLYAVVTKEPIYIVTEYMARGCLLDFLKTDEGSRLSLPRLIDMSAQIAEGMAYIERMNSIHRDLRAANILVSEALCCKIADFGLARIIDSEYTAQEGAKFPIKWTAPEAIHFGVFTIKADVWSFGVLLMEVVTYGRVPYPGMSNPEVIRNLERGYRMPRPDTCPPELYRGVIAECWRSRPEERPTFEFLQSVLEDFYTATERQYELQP
Description: (§1) Cells were washed with PBS and lysed in lysis buffer (50 mM Tris-HCl, pH 7.4, 150 mM NaCl, 1% Triton X-100, 1% sodium deoxycholate, 0.1% SDS) with complete protease inhibitor cocktail (Roche, 11836170001) for 30 min on ice. For Ramos cells, cell pellets were lysed in lysis buffer (50 mM Tris-HCl, pH 8, 150 mM NaCl, 1% NP-40, 0.5% sodium deoxycholate) with complete protease inhibitor cocktail. After centrifugation at 16,000 x g, the supernatant was transferred into a new tube and the protein concentration was determined by DC protein assay (BIO-RAD, 5000116). Proteins were separated by SDS-PAGE and transferred to a PVDF membrane (Thermo scientific, 0.45 μm, 88518). For PDEδ, BRD2, GAPDH, BRD4, Vinculin and BTK, the membranes were blocked with Intercept® Blocking Buffer (LI-COR Biosciences, 927-70001) at room temperature for 1 h. The primary antibodies for these proteins were diluted with Intercept® Blocking Buffer (1:500 for PDEδ, 1:3000 for Vinculin, and 1:1000 for other proteins) and incubated with the membranes overnight at 4 °C. Membranes were washed with PBS + 0.1% Tween 20 (PBS-T) five times and incubated with secondary antibodies conjugated to IRDye® Infrared Fluorescent Dyes (1:5000, LI-COR Biosciences) at room temperature for 1 h with protection from light. After washing the membrane, signals were visualized using the ChemiDoc MP Imaging System (BIO-RAD Laboratories). For detection of LC3B, BRD3, BLK, DCAF11, DDB1 RBX1, FIP200, V5- and FLAG-Tag the membranes were blocked with 5% milk in PBS-T at room temperature for 1 h. The primary antibodies for these proteins were diluted in 5% milk in PBS-T buffer (1:200 for BRD3, 1:1000 for other proteins) and incubated with the membranes overnight at 4 °C. Membranes were washed with PBS-T five times and incubated with HRP secondary antibodies (1:1500) at room temperature for 1 h. After washing the membrane, protein detection was performed using Western blotting detection reagent (Thermo Scientific, 34095) and the ChemiDoc MP Imaging System (BIO-RAD). Relative band intensities were quantified using Image Lab (BIO-RAD).

BTK = target: T2, BTK (Homo sapiens, UniProt Q06187); experiment: BTK levels by Western blot in Ramos cells; format: cell-based; details: 6 h
T2 construct: endogenous in cells; host or cells: Ramos
T2 sequence (Q06187 whole entry): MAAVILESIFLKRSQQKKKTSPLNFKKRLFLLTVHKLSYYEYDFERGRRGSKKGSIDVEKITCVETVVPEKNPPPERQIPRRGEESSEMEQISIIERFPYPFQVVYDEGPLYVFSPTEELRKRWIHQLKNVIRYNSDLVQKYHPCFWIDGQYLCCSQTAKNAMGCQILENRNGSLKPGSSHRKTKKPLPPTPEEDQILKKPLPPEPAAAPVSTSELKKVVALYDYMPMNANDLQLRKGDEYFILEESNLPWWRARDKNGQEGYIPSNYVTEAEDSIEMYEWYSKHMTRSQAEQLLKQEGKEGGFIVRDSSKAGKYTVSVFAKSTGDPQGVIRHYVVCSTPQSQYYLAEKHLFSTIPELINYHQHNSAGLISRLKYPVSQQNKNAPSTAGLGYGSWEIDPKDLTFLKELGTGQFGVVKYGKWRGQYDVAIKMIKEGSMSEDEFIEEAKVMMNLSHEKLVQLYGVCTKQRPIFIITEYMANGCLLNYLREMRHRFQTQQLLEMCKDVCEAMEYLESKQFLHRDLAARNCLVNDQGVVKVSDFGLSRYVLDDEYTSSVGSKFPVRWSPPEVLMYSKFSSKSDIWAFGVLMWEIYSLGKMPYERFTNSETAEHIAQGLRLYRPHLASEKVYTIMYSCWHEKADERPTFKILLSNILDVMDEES
Description: as §1, with “After washing the membrane, signals were visualized using the ChemiDoc MP Imaging System (BIO-RAD Laboratories). For detection of LC3B, BRD3, BLK, DCAF11, DDB1 RBX1, FIP200, V5- and FLAG-Tag the membranes were blocked with 5% milk in PBS-T at room temperature for 1 h. The primary antibodies for these proteins were diluted in 5% milk in PBS-T buffer (1:200 for BRD3, 1:1000 for other proteins) and incubated with the membranes overnight at 4 °C. Membranes were washed with PBS-T five times and incubated with HRP secondary antibodies (1:1500) at room temperature for 1 h. After washing the membrane, protein detection was performed using Western blotting detection reagent (Thermo Scientific, 34095) and the ChemiDoc MP Imaging System (BIO-RAD).” left out

[1] = Cell viability assay (CellTiter-Glo) in Jurkat cells; format: cell-based; details: human, Jurkat cells
Description: (§2) Jurkat cells (3 × 10^3) and Hep G2 cells (3.5 × 10^3) were seeded in 96-well plates in 100 μL culture medium. Cells were treated with compounds dissolved in 50 μl medium at the indicated concentration for 72 h, at the same time, one plate of cells without compounds treatment was used for the cell count at time zero. After adding 40 μl of CellTiter-Glo® reagent (Promega, G7571) to each well for 10 min at room temperature, the luminescence was measured on a Spark® Multimode Microplate Reader (Tecan). The data was analyzed by the GraphPad Prism 9.0.

Jurkat cells = experiment: as above; format: cell-based; details: for Relative cell viability (%): Fig. 4k; for Cell viability (%) relative to DMSO: individual replicates, Supplementary Fig. 7g
Description: as §2

Hep G2 cells = experiment: Cell viability assay (CellTiter-Glo) in Hep G2 cells; format: cell-based; details: Homo sapiens, HepG2, 72 h
Description: as §2

BRD2 [2] = target: BRD2 (Homo sapiens, UniProt P25440); experiment: BRD2 levels by Western blot in Hep G2 and MDA-MB-231 cells (incl. RNA interference); format: cell-based; set-up: endogenous in cells; host or cells: Hep G2; MDA-MB-231; details: Hep G2 cells; 30 μM 15 for 1 h, then 10 μM 9 for 4 h
BRD2 (Homo sapiens, UniProt P25440), sequence (P25440 whole entry): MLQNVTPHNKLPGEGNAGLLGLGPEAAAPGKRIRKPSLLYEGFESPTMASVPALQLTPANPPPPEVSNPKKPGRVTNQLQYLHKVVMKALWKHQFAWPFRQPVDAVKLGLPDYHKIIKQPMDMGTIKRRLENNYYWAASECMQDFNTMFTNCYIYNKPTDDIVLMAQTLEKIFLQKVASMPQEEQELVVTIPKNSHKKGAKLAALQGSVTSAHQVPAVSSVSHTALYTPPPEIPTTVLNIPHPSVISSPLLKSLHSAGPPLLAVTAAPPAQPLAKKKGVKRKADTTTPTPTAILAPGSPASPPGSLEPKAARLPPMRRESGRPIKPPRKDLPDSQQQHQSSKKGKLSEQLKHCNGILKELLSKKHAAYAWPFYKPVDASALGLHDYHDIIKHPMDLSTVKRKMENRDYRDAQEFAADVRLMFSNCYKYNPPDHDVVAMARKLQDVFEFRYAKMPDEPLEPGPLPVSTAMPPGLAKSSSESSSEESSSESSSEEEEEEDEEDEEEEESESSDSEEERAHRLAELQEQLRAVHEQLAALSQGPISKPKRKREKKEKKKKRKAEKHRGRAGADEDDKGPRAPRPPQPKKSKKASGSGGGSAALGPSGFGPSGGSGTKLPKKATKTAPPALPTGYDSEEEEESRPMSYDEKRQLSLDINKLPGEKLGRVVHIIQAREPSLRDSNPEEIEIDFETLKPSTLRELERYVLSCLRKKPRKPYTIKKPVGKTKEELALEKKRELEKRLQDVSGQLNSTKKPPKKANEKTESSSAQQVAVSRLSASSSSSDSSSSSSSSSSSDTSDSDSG
Description: as §1

BRD2 [3] = experiment: In-Cell Western for BRD2 levels in Hep G2 cells; format: cell-based; details: then 9 (10 μM, 4 h)
Description: Hep G2 cells were seeded in 96-well plates and incubated for 24 h. Compounds were added for the indicated time at the indicated concentration. Cells were then washed once with PBS and fixed with 4% paraformaldehyde for 30 min at room temperature. The fixed cells were permeabilized with 0.5 % Triton-X100 for 15 min followed by block with Intercept® Blocking Buffer (LI-COR Biosciences, 927-70001) for 1 h at room temperature. Primary antibodies for BRD2 (1:800) and Vinculin (1:2000) were diluted with LI-COR buffer and incubated with the cells at 4 °C overnight. Cells were washed with PBS-T, and the secondary antibodies conjugated to IRDye (1:1000, LI-COR Biosciences) were added to the cells for 1 h at room temperature. After washing the cells, the signal was recorded with the Odyssey® CLx Infrared Imaging System (LI-COR Biosciences) and the protein levels were analyzed by Image Studio (LI-COR Biosciences). BRD2 protein levels were normalized to the levels of reference protein vinculin.

SIRT1 = target: T3, SIRT1 (Homo sapiens, UniProt Q96EB6); experiment: SIRT activity assay SIRT1; format: biochemical; details: SIRT1 activity in presence of 3 µM compound 42
T3 construct: purchased BPS Bioscience 50081 (assay kit)
T3 sequence (Q96EB6 whole entry): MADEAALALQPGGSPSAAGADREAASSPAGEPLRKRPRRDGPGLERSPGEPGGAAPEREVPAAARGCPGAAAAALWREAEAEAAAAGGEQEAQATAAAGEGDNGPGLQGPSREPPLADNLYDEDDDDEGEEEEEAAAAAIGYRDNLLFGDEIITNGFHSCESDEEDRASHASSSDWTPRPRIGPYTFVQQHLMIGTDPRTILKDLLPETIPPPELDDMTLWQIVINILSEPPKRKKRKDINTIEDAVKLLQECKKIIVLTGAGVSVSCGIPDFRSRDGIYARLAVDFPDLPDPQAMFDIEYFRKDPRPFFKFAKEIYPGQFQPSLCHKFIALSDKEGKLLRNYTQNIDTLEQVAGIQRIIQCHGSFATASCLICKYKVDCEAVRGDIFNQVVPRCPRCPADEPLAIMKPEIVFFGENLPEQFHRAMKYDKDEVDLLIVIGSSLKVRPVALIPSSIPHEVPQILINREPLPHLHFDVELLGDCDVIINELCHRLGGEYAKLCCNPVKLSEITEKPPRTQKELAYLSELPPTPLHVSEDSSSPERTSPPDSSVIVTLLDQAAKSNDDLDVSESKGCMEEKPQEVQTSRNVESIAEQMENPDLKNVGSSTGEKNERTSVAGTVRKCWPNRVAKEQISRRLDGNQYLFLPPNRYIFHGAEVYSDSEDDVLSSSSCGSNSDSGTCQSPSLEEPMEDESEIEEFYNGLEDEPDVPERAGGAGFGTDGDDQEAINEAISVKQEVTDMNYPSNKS
Description: (§3) In vitro enzymatic SIRT assays were performed by BPS Bioscience for SIRT1, SIRT2, SIRT3, SIRT5 and SIRT6 using the respective SIRT Fluorogenic Assay Kit (BPS Bioscience, catalog numbers 50081, 50087, 50088, 50085 and 50022). The compound was pre-incubated in for 30 min at room temperature in a mixture containing SIRT assay buffer, 5 μg BSA, SIRT enzyme. Afterwards, the enzymatic reaction was initiated by the addition of SIRT substrate to a final concentration of 10 μM. The enzymatic reaction proceeded for 30 min at 37 °C followed by the addition of 2 x SIRT Developer and incubation at room temperature for 15 min. Fluorescence intensity was measured at an ex/em 360/460 nm using a Tecan Infinite M1000 microplate reader.

SIRT2 = target: T4, SIRT2 (Homo sapiens, UniProt Q8IXJ6); experiment: SIRT activity assay SIRT2; format: biochemical; details: SIRT2 activity in presence of 3 µM compound 42
T4 construct: purchased BPS Bioscience 50087 (assay kit)
T4 sequence (Q8IXJ6 whole entry): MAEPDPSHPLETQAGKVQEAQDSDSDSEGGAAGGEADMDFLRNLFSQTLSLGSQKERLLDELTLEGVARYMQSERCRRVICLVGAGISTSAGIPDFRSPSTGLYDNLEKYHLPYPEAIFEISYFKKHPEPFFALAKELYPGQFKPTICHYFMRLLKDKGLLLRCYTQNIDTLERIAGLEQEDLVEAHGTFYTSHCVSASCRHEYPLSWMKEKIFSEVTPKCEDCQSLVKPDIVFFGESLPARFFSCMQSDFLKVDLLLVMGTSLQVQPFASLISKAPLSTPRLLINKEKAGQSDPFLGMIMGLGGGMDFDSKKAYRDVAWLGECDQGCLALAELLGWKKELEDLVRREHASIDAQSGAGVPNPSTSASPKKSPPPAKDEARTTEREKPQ
Description: as §3

SIRT3 = target: T5, SIRT3 (Homo sapiens, UniProt Q9NTG7); experiment: SIRT activity assay SIRT3; format: biochemical; details: SIRT3 activity in presence of 3 µM compound 42
T5 construct: purchased BPS Bioscience 50088 (assay kit)
T5 sequence (Q9NTG7 whole entry): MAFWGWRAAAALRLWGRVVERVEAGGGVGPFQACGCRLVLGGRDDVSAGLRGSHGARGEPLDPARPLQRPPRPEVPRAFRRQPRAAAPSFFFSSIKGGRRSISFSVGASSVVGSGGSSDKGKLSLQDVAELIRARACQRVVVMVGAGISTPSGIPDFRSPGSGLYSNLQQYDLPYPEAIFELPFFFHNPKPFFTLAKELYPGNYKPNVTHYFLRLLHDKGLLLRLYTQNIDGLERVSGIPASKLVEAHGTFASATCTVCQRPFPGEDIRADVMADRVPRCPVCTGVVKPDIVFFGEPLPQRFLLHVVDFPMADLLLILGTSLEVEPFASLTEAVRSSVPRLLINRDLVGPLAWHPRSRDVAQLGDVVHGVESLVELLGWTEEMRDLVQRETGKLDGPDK
Description: as §3

SIRT5 = target: T6, SIRT5 (Homo sapiens, UniProt Q9NXA8); experiment: SIRT activity assay SIRT5; format: biochemical; details: SIRT5 activity in presence of 3 µM compound 42
T6 construct: purchased BPS Bioscience 50085 (assay kit)
T6 sequence (Q9NXA8 37-310): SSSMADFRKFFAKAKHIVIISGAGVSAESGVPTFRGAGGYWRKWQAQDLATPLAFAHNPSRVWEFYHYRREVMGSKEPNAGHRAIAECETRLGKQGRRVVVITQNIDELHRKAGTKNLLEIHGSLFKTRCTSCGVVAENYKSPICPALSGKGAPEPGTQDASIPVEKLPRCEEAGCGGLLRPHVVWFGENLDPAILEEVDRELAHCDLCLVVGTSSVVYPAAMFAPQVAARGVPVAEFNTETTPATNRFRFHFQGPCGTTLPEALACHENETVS
Description: as §3

SIRT6 = target: T7, SIRT6 (Homo sapiens, UniProt Q8N6T7); experiment: SIRT activity assay SIRT6; format: biochemical; details: SIRT6 activity in presence of 3 µM compound 42
T7 construct: purchased BPS Bioscience 50022 (assay kit)
T7 sequence (Q8N6T7 whole entry): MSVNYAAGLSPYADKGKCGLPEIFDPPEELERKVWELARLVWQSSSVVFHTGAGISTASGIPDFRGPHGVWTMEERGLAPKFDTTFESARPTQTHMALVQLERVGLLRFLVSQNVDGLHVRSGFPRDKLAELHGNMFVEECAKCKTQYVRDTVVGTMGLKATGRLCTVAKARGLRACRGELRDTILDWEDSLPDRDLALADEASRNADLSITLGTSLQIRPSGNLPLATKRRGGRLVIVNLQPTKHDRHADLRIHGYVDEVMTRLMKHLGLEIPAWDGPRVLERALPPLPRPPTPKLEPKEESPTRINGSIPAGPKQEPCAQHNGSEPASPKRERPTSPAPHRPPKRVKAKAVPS
Description: as §3

[4] = system: wildtype and mutant 482 kinases; experiment: Kinase profiling (SelectScreen); format: biochemical; details: 10 µM; panel of 482 wildtype and mutant kinases
Description: Compound 42 was profiled in duplicate at 10 µM against wildtype and mutant 482 kinases using the SelectScreen Kinase profiling services (ThermoFisher Scientific, USA) using enzymatic assays (Z’-Lyte and Adapta technology) or binding assays (LanthaScreen Eu kinase binding assays) (see https://www.thermofisher.com/de/de/home/products-and-services/services/custom-services/screening-and-profiling-services/selectscreen-profiling-service/selectscreen-kinase-profiling-service.html).

SMILES: Nc1ncnc2c1c(-c1ccc(Oc3ccccc3)cc1)nn2C1CCN(CC(=O)NCCOCCOCCOCCOCCNC(=O)COc2c(Br)cc(/C=C3\C(=O)Nc4ccc(Br)cc43)cc2Br)CC1 [Compound 13]
- BLK/Vinculin intensity (relative to DMSO control group) (BLK; 3 μM, 6 h, Fig. 2g): 37.145 and 35.6045 and 46.4487
- BLK/Vinculin intensity (relative to DMSO control group) (BLK; 10 μM, 6 h, Fig. 2g): 21.4399 and 23.7367 and 36.6727
- BLK/Vinculin intensity (relative to DMSO control group) (BLK; 30 μM, 6 h, Fig. 2g): 37.0963 and 39.3424 and 67.6199
- reduction of BLK levels (BLK; Ramos cells, 6 h): 70%
- BLK/Vinculin intensity (relative to DMSO control group) (BLK; Ramos cells, pretreated CFZ 1 μM 40 min, then 10 μM, 6h, Fig. 2h): 73.6122 and 85.1867 and 106.763
- BLK/Vinculin intensity (relative to DMSO control group) (BLK; Ramos cells, pretreated CQ 50 μM 40 min, then 10 μM, 6h, Fig. 2h): 24.1946 and 36.2698 and 40.4347
- BLK/Vinculin intensity (relative to DMSO control group) (BLK; Ramos cells, pretreated MLN4924 1 μM 40 min, then 10 μM, 6h, Fig. 2h): 110.614 and 82.1333 and 144.155
- reduction of BTK levels (BTK): 50%

- GI50 (Jurkat cells; Homo sapiens, Jurkat cells, 72 h): 1.7 ± 0.2 µM
- effect of pretreatment on BRD2 degradation by 9 (BRD2 [2]): impaired the degradation of BRD2
SMILES: COCCCN(C(=O)CCl)C(C(=O)NCc1ccccc1)c1ccc(Cl)c(Cl)c1 (centres unmarked) [Compound 15, reference compound]
- viability at 72 h, 10 nmol/L ([1]; concentration 10 nmol/L, individual replicates, Supplementary Fig. 7g, read-out: Cell viability (%) relative to DMSO): 90.9%
- viability at 72 h, 30 nmol/L ([1]; concentration 30 nmol/L, individual replicates, Supplementary Fig. 7g, read-out: Cell viability (%) relative to DMSO): 89%
- viability at 72 h, 0.01 µM ([1]; 72 h, 10 nM, Fig. 4k, read-out: Relative cell viability (%)): 98.2%
- viability at 72 h, 0.03 µM ([1]; 72 h, 30 nM, Fig. 4k, read-out: Relative cell viability (%)): 95.3%
- viability at 72 h, 0.1 µM ([1]; 72 h, 100 nM, Fig. 4k, read-out: Relative cell viability (%)): 97.5%
- viability at 72 h, 0.3 µM ([1]; 72 h, 300 nM, Fig. 4k, read-out: Relative cell viability (%)): 89.8%
- viability at 72 h, 1 µM ([1]; 72 h, 1000 nM, Fig. 4k, read-out: Relative cell viability (%)): 69.4%
- Relative cell viability (%) (Jurkat cells; Jurkat cells, 72 h, 10 nM, 0.01 µM): 107.976% and 98.062%
- Relative cell viability (%) (Jurkat cells; Jurkat cells, 72 h, 30 nM, 0.03 µM): 111.548% and 108.416%
- Relative cell viability (%) (Jurkat cells; Jurkat cells, 72 h, 100 nM, 0.1 µM): 104.746% and 97.0657%
- Relative cell viability (%) (Jurkat cells; Jurkat cells, 72 h, 300 nM, 0.3 µM): 101.886% and 95.5624%
- Relative cell viability (%) (Jurkat cells; Jurkat cells, 72 h, 1000 nM, 1 µM): 76.2485% and 79.6366%
- Relative cell viability (%) (Jurkat cells; Jurkat cells, 72 h, 3000 nM, 3 µM): -0.04609% and 0.01061% and 0.06492%
- Relative cell viability (%) (Jurkat cells; Jurkat cells, 72 h, 10000 nM, 10 µM): -0.2034% and -0.1473% and -0.1406%
- Relative cell viability (%) (Jurkat cells; Jurkat cells, 72 h, 30000 nM, 30 µM): -0.2515% and -0.2135% and -0.2133%
- Cell viability (%) relative to DMSO (Jurkat cells; concentration 10 nmol/L): 93.1923% and 103.02%
- Cell viability (%) relative to DMSO (Jurkat cells; concentration 30 nmol/L): 89.995% and 103.027%
- Cell viability (%) relative to DMSO (Jurkat cells; concentration 100 nmol/L): 81.9055% and 90.259% and 101.913%
- Cell viability (%) relative to DMSO (Jurkat cells; concentration 300 nmol/L): 82.6491% and 87.803% and 104.249%
- Cell viability (%) relative to DMSO (Jurkat cells; concentration 1000 nmol/L): 80.0935% and 85.5797% and 108.086%
- Cell viability (%) relative to DMSO (Jurkat cells; concentration 3000 nmol/L): 49.5057% and 68.1876% and 85.0918%
- Cell viability (%) relative to DMSO (Jurkat cells; concentration 10000 nmol/L): 0.002496% and -0.07521% and -0.05875%
- Cell viability (%) relative to DMSO (Jurkat cells; concentration 30000 nmol/L): -0.1172% and -0.221% and -0.2298%
- GI50 (Hep G2 cells): 6.5 ± 1.8 µM

SMILES: O=C1Nc2ccc(Br)cc2C1=Cc1cc(Br)c(OCCO)c(Br)c1 [Compound 42]
- BRD2/Vinculin intensity (relative to control group) (BRD2 [3]; Hep G2 cells, pretreated with compound at 30 μM 1 h, single repeats, Fig. 4h): 46.6052 and 52.1075 and 59.9094 and 63.5387
- Value (Mean ± SD): Relative BRD2 levels remaining in Hep G2 cells after treatment with compounds followed by treatment with 9, with DMSO control for normalization (BRD2 [3]; qualitative ICW assay, pretreated at 30 μM 1 h, Supplementary Table 1): 55.54 ± 6.61
- Activity [%] (N=1) (SIRT1): 93%
- Activity [%] (N=2) (SIRT1): 97%
- Activity [%] (N=1) (SIRT2): 104%
- Activity [%] (N=2) (SIRT2): 111%
- Activity [%] (N=1) (SIRT3): 67%
- Activity [%] (N=2) (SIRT3): 67%
- Activity [%] (N=1) (SIRT5): 95%
- Activity [%] (N=2) (SIRT5): 98%
- Activity [%] (N=1) (SIRT6): 87%
- Activity [%] (N=2) (SIRT6): 90%
- number of wildtype kinases inhibited by more than 50 % [4]: seven
